Test results from patent US20100105651A1, “ANTAGONISTS OF SNS SODIUM CHANNELS” (priority 2005, published 2010).
pIC50: −log10 of the molar value.

Molecular target: T1, human NaV1.8 (hNaV1.8) ion channel (Homo sapiens, UniProt Q9Y5Y9)
T1 construct: expressed in transfected cells
Experiment: Inhibition of Human NaV1.8 stably expressed in SH-SY-5Y cells (membrane potential dye fluorescence assay)
Format: cell-based
Conditions: SH-SY-5Y cells stably expressing hNaV1.8; FLIPR membrane potential dye; 10 μM pyrethroid, 250 nM TTX; test range 100 μM-0.05 μM; read-out: hNav1.8 IC50
Procedure: Inhibition of Human NaV1.8 stably expressed in SH-SY-5Y cells
A SH-SY-5Y neuroblastoma cell line stably expressing the human NaV1.8 (hNaV1.8) ion channel was constructed. This cell line has been used to develop a medium to high throughput assay for determining the ability of test compounds to inhibit membrane depolarisation mediated via the hNaV1.8 channel.
SH-SY-5Y hNaV1.8 are grown in adherent monolayer culture using 50:50 Ham's F-12/EMEM tissue culture medium supplemented with 15% (v/v) foetal bovine serum; 2 mM L-glutamine, 1% NEAA and 600 μg·ml^−1 Geneticin sulphate. Cells are removed from the tissue culture flask using trypsin/EDTA and re-plated into black walled, clear bottom 96-well assay plates at 50,000 cells·well^−1 24 hours prior to assay.
On the day of assay the cell assay plates are washed to remove cell culture medium using a sodium free assay buffer (145 mM tetramethyl ammonium chloride; 2 mM calcium chloride; 0.8 mM magnesium chloride hexahydrate; 10 mM HEPES; 10 mM glucose; 5 mM potassium chloride, pH 7.4). Fluorescent membrane potential dye solution (FLIPR™ membrane potential dye, Molecular Devices Corporation), containing 10 μM of a pyrethroid to prevent channel inactivation and 250 nM tetrodotoxin (TTX) to reduce interference from TTX-sensitive sodium channels present in the cell line. Test compound, initially dissolved in dimethyl sulfoxide but further diluted in sodium free buffer, is added to achieve the final test concentration range of 100 μM-0.05 μM.
Cell plates are incubated for 30 minutes at room temperature to allow equilibration of dye and test compound. Plates are then transferred to a fluorescence plate reader for fluorescence measurement using an excitation wavelength of 530 nm whilst measuring fluorescence emission at 565 nm. […] Membrane depolarisation is registered by an increase in fluorescence emission at 565 nm.
The change in fluorescence seen in each test well upon the addition of sodium containing buffer is calculated relative to the baseline fluorescence for that well. This figure is then used for calculating the IC50 for each test compound.

T1 sequence (Q9Y5Y9 whole entry): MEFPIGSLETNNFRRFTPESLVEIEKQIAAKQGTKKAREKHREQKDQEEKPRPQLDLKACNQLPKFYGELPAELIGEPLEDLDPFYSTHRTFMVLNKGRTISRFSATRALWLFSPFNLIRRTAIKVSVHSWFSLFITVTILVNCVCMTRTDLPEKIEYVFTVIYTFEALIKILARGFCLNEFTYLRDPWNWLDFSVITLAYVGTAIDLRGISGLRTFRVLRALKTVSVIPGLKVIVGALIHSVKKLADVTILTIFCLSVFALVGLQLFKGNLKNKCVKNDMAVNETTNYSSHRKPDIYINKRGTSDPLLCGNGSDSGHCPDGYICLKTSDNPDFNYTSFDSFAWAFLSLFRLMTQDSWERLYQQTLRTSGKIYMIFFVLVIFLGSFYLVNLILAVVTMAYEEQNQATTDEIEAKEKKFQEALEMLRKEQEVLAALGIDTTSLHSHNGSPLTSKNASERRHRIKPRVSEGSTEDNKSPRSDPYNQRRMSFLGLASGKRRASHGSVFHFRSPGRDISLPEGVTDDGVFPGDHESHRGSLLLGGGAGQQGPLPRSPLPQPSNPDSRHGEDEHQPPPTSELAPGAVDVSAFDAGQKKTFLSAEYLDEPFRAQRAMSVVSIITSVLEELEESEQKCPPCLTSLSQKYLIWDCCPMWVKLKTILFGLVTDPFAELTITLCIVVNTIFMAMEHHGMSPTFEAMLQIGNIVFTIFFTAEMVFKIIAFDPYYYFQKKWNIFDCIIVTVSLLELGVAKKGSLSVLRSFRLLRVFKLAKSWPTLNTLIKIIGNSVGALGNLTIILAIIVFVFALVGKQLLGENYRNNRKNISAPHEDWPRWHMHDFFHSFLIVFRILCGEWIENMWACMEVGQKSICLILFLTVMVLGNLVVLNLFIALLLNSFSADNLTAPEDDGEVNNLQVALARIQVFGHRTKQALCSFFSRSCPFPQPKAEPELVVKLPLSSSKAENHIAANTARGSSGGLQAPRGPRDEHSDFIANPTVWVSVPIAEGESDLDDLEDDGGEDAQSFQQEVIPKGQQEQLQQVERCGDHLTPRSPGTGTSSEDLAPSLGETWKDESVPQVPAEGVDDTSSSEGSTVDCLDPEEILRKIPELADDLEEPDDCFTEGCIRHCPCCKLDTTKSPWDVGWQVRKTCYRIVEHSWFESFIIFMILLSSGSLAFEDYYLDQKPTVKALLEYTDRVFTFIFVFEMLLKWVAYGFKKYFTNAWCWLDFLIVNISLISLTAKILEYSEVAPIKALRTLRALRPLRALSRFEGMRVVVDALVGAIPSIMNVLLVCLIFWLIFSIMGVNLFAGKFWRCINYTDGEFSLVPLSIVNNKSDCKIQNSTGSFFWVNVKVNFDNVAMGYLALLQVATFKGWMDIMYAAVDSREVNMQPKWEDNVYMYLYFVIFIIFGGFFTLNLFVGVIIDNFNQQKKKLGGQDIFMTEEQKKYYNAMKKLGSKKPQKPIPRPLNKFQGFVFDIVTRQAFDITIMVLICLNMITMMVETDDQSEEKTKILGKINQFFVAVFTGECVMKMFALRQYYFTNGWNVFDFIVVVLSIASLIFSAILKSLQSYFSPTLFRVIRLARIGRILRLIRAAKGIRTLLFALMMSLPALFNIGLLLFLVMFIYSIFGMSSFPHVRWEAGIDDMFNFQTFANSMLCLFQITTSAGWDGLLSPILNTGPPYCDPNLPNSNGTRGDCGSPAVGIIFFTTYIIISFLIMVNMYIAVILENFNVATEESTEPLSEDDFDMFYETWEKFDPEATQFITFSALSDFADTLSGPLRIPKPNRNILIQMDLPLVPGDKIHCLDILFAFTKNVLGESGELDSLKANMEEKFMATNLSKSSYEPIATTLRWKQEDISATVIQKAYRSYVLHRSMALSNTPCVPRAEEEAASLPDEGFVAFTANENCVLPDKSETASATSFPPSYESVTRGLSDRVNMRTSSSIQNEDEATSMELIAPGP

SMILES	pIC50
CC(NC1CN(C(=O)Nc2ccc(OC(F)(F)F)cc2)C1)c1ccc(F)cc1 (stereo not drawn) [Example 72, 3-[1-(4-Fluoro-phenyl)-ethylamino]-azetidine-1-carboxylic acid (4-trifluoromethoxy-phenyl)-amide]	5.49
CCCCOc1cccc(NC(=O)N2CC(NC(C)c3ccccc3C)C2)c1 (stereo not drawn) [Example 68, 3-(1-o-Tolyl-ethylamino)-azetidine-1-carboxylic acid (3-butoxy-phenyl)-amide]	6.08
Cc1cc(F)ccc1C(C)NC1CN(C(=O)Nc2cccc(Oc3ccccc3)c2)C1 (stereo not drawn) [Example 112, 3-[1-(4-Fluoro-2-methyl-phenyl)-ethylamino]-azetidine-1-carboxylic acid (3-phenoxy-phenyl)-amide]	6.18
CC(c1ccc(F)cc1Cl)N(C)C1CN(C(=O)Nc2ccc(C(F)(F)F)cc2)C1 (stereo not drawn) [Example 59, 3-{[1-(2-Chloro-4-fluoro-phenyl)-ethyl]-methyl-amino}-azetidine-1-carboxylic acid (4-trifluoromethyl-phenyl)-amide]	5.73
CC(NC1CN(C(=O)Nc2ccc(Oc3ccccc3)cc2)C1)c1ccc(N2CCCCC2)cc1 (stereo not drawn) [Example 120, 3-[1-(4-Piperidin-1-yl-phenyl)-ethylamino]-azetidine-1-carboxylic acid (4-phenoxy-phenyl)-amide]	6.23
CC(c1ccc(F)cc1)N(C)C1CN(C(=O)Nc2cc(F)cc(C(F)(F)F)c2)C1 (stereo not drawn) [Example 82, 3-{[1-(4-Fluoro-phenyl)-ethyl]-methyl-amino}-azetidine-1-carboxylic acid (3-fluoro-5-trifluoromethyl-phenyl)-amide]	5.24
O=C(Nc1ccc(C(F)(F)F)cc1)N1CC(NC2CCc3cc(O)ccc32)C1 (stereo not drawn) [Example 33, 3-(5-Hydroxy-indan-1-ylamino)-azetidine-1-carboxylic acid (4-trifluoromethyl-phenyl)-amide]	4.94
O=C(Nc1ccc(C(F)(F)F)cc1)N1CC(NC2CCc3ccccc3C2)C1 (stereo not drawn) [Example 32, 3-(1,2,3,4-Tetrahydro-naphthalen-2-ylamino)-azetidine-1-carboxylic acid (4-trifluoromethyl-phenyl)-amide]	6.35
CN(C1CN(C(=O)Nc2cccc(C(F)(F)F)c2)C1)C1CCc2cc(F)ccc21 (stereo not drawn) [Example 40, 3[(5-Fluoro-indan-1-yl)-methyl-amino]-azetidine-1-carboxylic acid (3-trifluoromethyl-phenyl)-amide]	5.64
Cc1cc(F)ccc1C(C)NC1CN(C(=O)Nc2ccc(C(F)(F)F)cc2)C1 (stereo not drawn) [Example 114, 3-[1-(4-Fluoro-2-methyl-phenyl)-ethylamino]-azetidine-1-carboxylic acid (4-trifluoromethyl-phenyl)-amide]	5.64
COc1ccc2c(c1)CCC2NC1CN(C(=O)Nc2ccc(Oc3cccc(F)c3)cc2)C1 (stereo not drawn) [Example 134, 3-(5-Methoxy-indan-1-ylamino)-azetidine-1-carboxylic acid [4-(3-fluoro-phenoxy)-pheny]-amide]	6.77
CC(NC1CN(C(=O)Nc2ccc(C(F)(F)F)cc2)C1)c1ccc(C#N)cc1 (stereo not drawn) [Example 126, 3-[1-(4-Cyano-phenyl)-ethylamino]-azetidine-1-carboxylic acid (4-trifluoromethyl-phenyl)-amide]	4.63
CCCCOc1ccc(NC(=O)N2CC(N3CCc4cccc(OC)c4C3)C2)cc1 [Example 76, 3-(8-Methoxy-3,4-dihydro-1H-isoquinolin-2-yl)-azetidine-1-carboxylic acid (4-butoxy-phenyl)-amide]	5.85
CC(NC1CN(C(=O)Nc2ccc(Oc3ccccc3)cc2)C1)c1ccccc1Cl (stereo not drawn) [Example 63, 3-[1-(2-Chloro-phenyl)-ethylamino]-azetidine-1-carboxylic acid (4-phenoxy-phenyl)-amide]	6.20
CC(NC1CN(C(=O)Nc2ccc(Oc3ccc(F)cc3)cc2)C1)c1c(F)cccc1F (stereo not drawn) [Example 131, 3-[1-(2,6-Difluoro-phenyl)-ethylamino]-azetidine-1-carboxylic acid [4-(4-fluoro-phenoxy)-phenyl]-amide]	6.28
O=C(Nc1ccc(Oc2ccccc2)cc1)N1CC(NCc2c(F)cccc2F)C1 [Example 128, 3-(2,6-Difluoro-benzylamino)-azetidine-1-carboxylic acid (4-phenoxy-phenyl)-amide]	6.08
CN(C1CN(C(=O)Nc2ccc(C(F)(F)F)cc2)C1)C1CCc2cc(F)ccc21 (stereo not drawn) [Example 39, 3[(5-Fluoro-indan-1-yl)-methyl-amino]-azetidine-1-carboxylic acid (4-trifluoromethyl-phenyl)-amide]	5.69
O=C(Nc1ccc(C(F)(F)F)cc1)N1CC(NC2CCc3cc(F)ccc3C2)C1 (stereo not drawn) [Example 35, 3-(6-Fluoro-1,2,3,4-tetrahydro-naphthalen-2-ylamino)-azetidine-1-carboxylic acid (4-trifluoromethyl-phenyl)-amide]	5.88
CC(NC1CN(C(=O)Nc2ccc(C(F)(F)F)cc2)C1)c1ccc(F)cc1 (stereo not drawn) [Example 56, 3-[1-(4-Fluoro-phenyl)-ethylamino]-azetidine-1-carboxylic acid (4-trifluoromethyl-phenyl)-amide]	5.48
CCCCOc1cccc(NC(=O)N2CC(N(C)C(C)c3ccccc3C)C2)c1 (stereo not drawn) [Example 87, 3-[Methyl-(1-o-tolyl-ethyl)-amino]-azetidine-1-carboxylic acid (3-butoxy-phenyl)-amide]	5.99
Cc1ccccc1C(C)N(C)C1CN(C(=O)Nc2cccc(C(F)(F)F)c2)C1 (stereo not drawn) [Example 96, 3-[Methyl-(1-o-tolyl-ethyl)-amino]-azetidine-1-carboxylic acid (3-trifluoromethyl-phenyl)-amide]	5.52
CC(c1ccc(OC(F)(F)F)cc1)N(C)C1CN(C(=O)Nc2ccc(Oc3ccccc3)cc2)C1 (stereo not drawn) [Example 80, 3-{Methyl-[1-(4-trifluoromethoxy-phenyl)-ethyl]-amino}-azetidine-1-carboxylic acid (4-phenoxy-phenyl)-amide]	5.91
CC(c1ccccc1Cl)N(C)C1CN(C(=O)Nc2ccc(Oc3ccccc3)cc2)C1 (stereo not drawn) [Example 67, 3-{[1-(2-Chloro-phenyl)-ethyl]-methyl-amino}-azetidine-1-carboxylic acid (4-phenoxy-phenyl)-amide]	6.26
O=C(Nc1ccc(Oc2ccc(F)cc2)cc1)N1CC(NC2CCc3cc(F)ccc32)C1 (stereo not drawn) [Example 7, 3-(5-Fluoro-indan-1-ylamino)-azetidine-1-carboxylic acid [4-(4-fluoro-phenoxy)-phenyl]-amide]	6.60
CN(C(=O)N1CC(NC2CCc3cc(F)ccc32)C1)c1ccc(Oc2ccc(F)cc2)cc1 (stereo not drawn) [Example 20, 3-(5-Fluoro-indan-1-ylamino)-azetidine-1-carboxylic acid [4-(4-fluoro-phenoxy)-phenyl]-methyl-amide]	6.15
CCCCOc1ccc(NC(=O)N2CC(NC3CCc4cc(F)ccc43)C2)cc1 (stereo not drawn) [Example 6, 3-(5-Fluoro-indan-1-ylamino)-azetidine-1-carboxylic acid (4-butoxy-phenyl)-amide]	5.92
O=C(Nc1ccc(Oc2ccc(F)cc2)c(F)c1)N1CC(NC2CCc3cc(Cl)ccc32)C1 (stereo not drawn) [Example 15, 3-(5-Chloro-indan-1-ylamino)-azetidine-1-carboxylic acid [3-fluoro-4-(4-fluoro-phenoxy)-phenyl]-amide]	6.19
